Laboratory results taken from PubChem BioAssay AID192 (DTP/NCI, 2004).
Toxic doses and inconclusive results are not listed. Rule for the calls: active = survival T/C of 150% or more; inactive = T/C below 125% in these data.

Test system: BDF1 mice, B16 melanoma ip, median survival T/C
Experiment: NCI In Vivo Anticancer Drug Screen. Data for tumor model B16 Melanoma (intraperitoneal) in B6D2F1 (BDF1) mice
Settings: endpoint: median survival time, higher = longer survival
How it was run: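 Transplantable tumor model; survival or tumor size measured; reported as T/C, treated over vehicle control.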

Measured: T/C

COc1ccc2c(c1)C(=O)CCN2
inactive: dose: 100.0 mg/kg/injection, schedule: Q04DX003 (ip), vehicle: Klucel (hydroxypropylcellulose) (HPC) 114 % of control | dose: 200.0 mg/kg/injection, schedule: Q04DX003 (ip), vehicle: Klucel (hydroxypropylcellulose) (HPC) 107 % of control | dose: 400.0 mg/kg/injection, schedule: Q04DX003 (ip), vehicle: Klucel (hydroxypropylcellulose) (HPC) 99 % of control

CN(C)CC/C=C1\c2ccccc2Sc2ccc(Cl)cc21
inactive: dose: 0.12 mg/kg/injection, schedule: Q01DX009 (ip), vehicle: Klucel (hydroxypropylcellulose) (HPC) 95 % of control | dose: 0.24 mg/kg/injection, schedule: Q01DX009 (ip), vehicle: Klucel (hydroxypropylcellulose) (HPC) 86 % of control | dose: 0.48 mg/kg/injection, schedule: Q01DX009 (ip), vehicle: Klucel (hydroxypropylcellulose) (HPC) 88 % of control | dose: 1.95 mg/kg/injection, schedule: Q01DX009 (ip), vehicle: Klucel (hydroxypropylcellulose) (HPC) 86 % of control | dose: 7.0 micrograms/kg/injection, schedule: Q01DX009 (ip), vehicle: Klucel (hydroxypropylcellulose) (HPC) 105 % of control | dose: 15.0 micrograms/kg/injection, schedule: Q01DX009 (ip), vehicle: Klucel (hydroxypropylcellulose) (HPC) 107 % of control | dose: 30.0 micrograms/kg/injection, schedule: Q01DX009 (ip), vehicle: Klucel (hydroxypropylcellulose) (HPC) 105 % of control | dose: 60.0 micrograms/kg/injection, schedule: Q01DX009 (ip), vehicle: Klucel (hydroxypropylcellulose) (HPC) 105 % of control | dose: 120.0 micrograms/kg/injection, schedule: Q01DX009 (ip), vehicle: Klucel (hydroxypropylcellulose) (HPC) 98 % of control

COc1cc(NS(C)(=O)=O)ccc1Nc1c2ccc([N+](=O)[O-])cc2nc2c(C)cccc12
inactive: dose: 0.08 mg/kg/injection, schedule: Q01DX009 (ip), vehicle: saline with Tween-80 105 % of control | dose: 0.15 mg/kg/injection, schedule: Q01DX009 (ip), vehicle: saline with Tween-80 107 % of control | dose: 0.6 mg/kg/injection, schedule: Q01DX009 (ip), vehicle: saline with Tween-80 122 % of control

CCN(CC)P(=O)(N1CC1C)N1CC1C (stereo not drawn)
inactive: dose: 9.3 mg/kg/injection, schedule: Q01DX009 (ip), vehicle: saline 123 % of control | dose: 18.7 mg/kg/injection, schedule: Q01DX009 (ip), vehicle: saline 112 % of control | dose: 37.5 mg/kg/injection, schedule: Q01DX009 (ip), vehicle: saline 99 % of control
